According to patent US5073539A, “Transdermal administration of zwitterionic drugs” (Ciba-Geigy Corporation, priority 1990, dated 1991):
Values after ≈ are worked out from the molar mass of the structure shown. Structures can show the parent of a compound that is named as a salt. Where two headings read alike, the source gives them in different places.

Assays:
[1] = Solubility in water at 25 deg. C.; assay type: physicochemical; conditions: average of triplicate
From the text: (§1) The solubility in water is given as a model of polar solvents, while the octanol and chloroform are given as models for skin lipids.

[2] = Permeation rate through polyurethane; assay type: physicochemical
From the text: (§2) In the examples, the solubilities of free zwitterion and enhanced solubilities of various salts thereof are reported in various degrees in the following solvents: water, ethanol, octanol, chloroform and human stratum corneum. Permeation rates are also shown for these zwitterionic compounds and enhanced fluxes of the salts thereof through materials including polyurethane. While such materials are impractical for transdermal devices for free zwitterions, these materials are practical for the transdermal delivery of salts of zwitterions. The solubility in water is given as a model of polar solvents, while the octanol and chloroform are given as models for skin lipids. The critical factor for inclusion of a salt within the invention is that relative to its non salt zwitterion parent compound, the salt form of the invention has a greater solubility in both polar and lipid skin models.
(§3) Average of values measured in triplicate.

[3] = Solubility in chloroform at 25 deg. C. (model of skin lipids); assay type: physicochemical
From the text: as §2, §3

[4] = Solubility in ethanol at 25 deg. C.; assay type: physicochemical; conditions: average of triplicate
[5] = Solubility in octanol at 25 deg. C. (model of skin lipids); assay type: physicochemical; conditions: average of triplicate
From the text: as §1

[6] = Permeation rate through human epidermis; assay type: in vitro ADME
From the text: as §2, §3

[7] = Solubility in human stratum corneum; assay type: physicochemical; conditions: average of triplicate
From the text: as §2, §3

[8] = at 25 deg. C., average of triplicate

SMILES | Solubility in water [1] [mg/mL] | Permeation rate through polyurethane ([2]; average of triplicate) [ug/cm 2/hr] | R.E. (relative enhancement) of permeation rate through polyurethane ([2]; relative to free zwitterion) | Solubility in chloroform [3, 8] [µg/mL] | Solubility in ethanol [4] [mg/mL] | Solubility in octanol [5] [mg/mL] | Permeation rate through polyurethane [2] [ug/cm 2/hr] | R.E. (relative enhancement) of permeation rate through polyurethane [2] | other results
NCC(CC(=O)O)c1ccc(Cl)cc1 (stereo not drawn) [Bac. ethane sulfonate] | 38.8898 | 211.9 | 39.83 | 11.17 | 237.181 | – | – | – | –
NCC(CC(=O)O)c1ccc(Cl)cc1 (stereo not drawn) [Bac. fumarate] | 1.1875 | 11.4 | 2.14 | 0.627 | – | – | – | – | –
NCC(CC(=O)O)c1ccc(Cl)cc1 (stereo not drawn) [Bac. hydrobromide] | 351.9468 | 738.9 | 138.89 | 13.7 | 129.5697 | 0.47705 | – | – | Permeation rate through human epidermis ([6]; average of triplicate): 25.49 ug/cm 2/hr; R.E. (relative enhancement) of permeation rate through human epidermis ([6]; relative to free zwitterion): 216.02; Solubility in human stratum corneum [7]: 0.2922 mg/mL
NCC(CC(=O)O)c1ccc(Cl)cc1 (stereo not drawn) [Bac. hydrochloride] | 244.6225 | 273.7 | 51.45 | 5.34 | 37.4989 | 0.3243 | – | – | Solubility in human stratum corneum [7]: 0.21469 mg/mL
NCC(CC(=O)O)c1ccc(Cl)cc1 (stereo not drawn) [Bac. hydrofluoride] | 1.3962 (≈ 6.53 mM) | 3.45 | 0.65 | 0.104 (≈ 0.000487 mM) | 1.79088 (≈ 8.38 mM) | – | – | – | Solubility in human stratum corneum [7]: 0.02215 mg/mL (≈ 0.104 mM)
NCC(CC(=O)O)c1ccc(Cl)cc1 (stereo not drawn) [Bac. lithium salt] | 21.7191 | 128.3 | 24.12 | 6.93 | 57.8373 | – | – | – | –
NCC(CC(=O)O)c1ccc(Cl)cc1 (stereo not drawn) [Bac. maleate] | 1.2923 | 19.13 | 3.59 | 0.026 | – | – | – | – | –
NCC(CC(=O)O)c1ccc(Cl)cc1 (stereo not drawn) [Bac. methane sulfonate, baclofen methane sulfonate] | 8.8269 | 287.9 | 54.12 | 0.087 | 170.84 | – | – | – | solubility in chloroform versus free zwitterion ([3]; in words, exception to salt being more soluble): one exception
NCC(CC(=O)O)c1ccc(Cl)cc1 (stereo not drawn) [Bac. pentane sulfonate] | – | 220.2 | 41.30 | 37.4 | 61.6503 | 0.5764 | – | – | –
NCC(CC(=O)O)c1ccc(Cl)cc1 (stereo not drawn) [Bac. potassium salt] | – | 587.8 | 110.49 | – | – | – | – | – | –
NCC(CC(=O)O)c1ccc(Cl)cc1 (stereo not drawn) [Bac. propane sulfonate] | 24.4257 | 233.9 | 43.97 | 8.74 | 107.317 | – | – | – | –
NCC(CC(=O)O)c1ccc(Cl)cc1 (stereo not drawn) [Bac. sodium salt] | 21.3797 | 605.3 | 113.78 | 3.47 | 529.056 | – | – | – | –
NCC(CC(=O)O)c1ccc(Cl)cc1 (stereo not drawn) [Baclofen (Bac), Baclofen, reference compound] | 6.8287 (≈ 32 mM) | 5.32 | 1.00 | 0.22 (≈ 0.00103 mM) | 1.1441 (≈ 5.35 mM) | 0.0222 (≈ 0.104 mM) | – | – | Permeation rate through human epidermis ([6]; average of triplicate): 0.118 ug/cm 2/hr; R.E. (relative enhancement) of permeation rate through human epidermis ([6]; relative to free zwitterion): 1.00; Solubility in human stratum corneum [7]: 0.00311 mg/mL (≈ 0.0146 mM)
O=C(O)CN1C(=O)[C@@H](N[C@@H](CCc2ccccc2)C(=O)O)CCc2ccccc21 [Benazeprilat (CGS14831), Benazeprilat, reference compound] | – | – | – | – | 0.12089 (≈ 0.305 mM) | – | 0.311 | 1.00 | Permeation rate through human epidermis [6]: 0.1409 ug/cm 2/hr; R.E. (relative enhancement) of permeation rate through human epidermis [6]: 1.00
O=C(O)CN1C(=O)[C@@H](N[C@@H](CCc2ccccc2)C(=O)O)CCc2ccccc21 [CGS 14831. dilithium salt] | – | – | – | – | 27.97561 | – | 47.76 | 153.57 | Permeation rate through human epidermis [6]: 8.95 ug/cm 2/hr; R.E. (relative enhancement) of permeation rate through human epidermis [6]: 63.52
O=C(O)CN1C(=O)[C@@H](N[C@@H](CCc2ccccc2)C(=O)O)CCc2ccccc21 [CGS 14831. dipotassium salt] | – | – | – | – | 34.19351 | – | 75.01 | 241.19 | Permeation rate through human epidermis [6]: 20.56 ug/cm 2/hr; R.E. (relative enhancement) of permeation rate through human epidermis [6]: 145.92
NCCCC[C@H](N[C@H]1CCc2ccccc2N(CC(=O)O)C1=O)C(=O)O [CGS 16617, reference compound] | 491.5 (≈ 1350 mM) | – | – | – | 0.1907 (≈ 0.525 mM) | 0.02336 (≈ 0.0643 mM) | 0.538 | 1.00 | –
NCCCC[C@H](N[C@H]1CCc2ccccc2N(CC(=O)O)C1=O)C(=O)O [CGS 16617. dihydrobromide] | 1423 | – | – | – | 45.0269 | 0.5067 | 65.31 | 121.39 | –
NCCCC[C@H](N[C@H]1CCc2ccccc2N(CC(=O)O)C1=O)C(=O)O [CGS 16617. dihydrochloride] | 1127.8 | – | – | – | 1.89075 | 0.0878 | 13.34 | 24.80 | –
NCCCC[C@H](N[C@H]1CCc2ccccc2N(CC(=O)O)C1=O)C(=O)O [CGS 16617. monomaleate] | 623.9 | – | – | – | 0.24882 | 0.01396 | 3.47 | 6.45 | –
NC(Cc1ccccc1)C(=O)O (stereo not drawn) [Phe. hydrochloride] | 959.6908 | 1516.23 | 789.70 | 58.26 | 107.1459 | 40.2318 | – | – | Permeation rate through human epidermis ([6]; average of triplicate): 77.53 ug/cm 2/hr; R.E. (relative enhancement) of permeation rate through human epidermis ([6]; relative to free zwitterion): 76.01
N[C@@H](Cc1ccccc1)C(=O)O [Phenylalanine (Phe), Phenylalanine, reference compound] | – | 1.92 | 1.00 | – | – | – | – | – | solubility ([1]; water): 25.3 mg/mL (≈ 153 mM); solubility ([5]; octanol, organic solvent or mixture): 0.0123 mg/mL (≈ 0.0745 mM); Permeation rate through human epidermis ([6]; average of triplicate): 1.02 ug/cm 2/hr; R.E. (relative enhancement) of permeation rate through human epidermis ([6]; relative to free zwitterion): 1.00; solubility ([3]; chloroform, organic solvent or mixture, at 25 deg. C., average of triplicate): 0.00021 mg/mL (≈ 0.00127 mM); solubility ([4]; ethanol, organic solvent or mixture): 0.234 mg/mL (≈ 1.42 mM)
